Experimental data published in US20250326753A1, “DUAL CXCR4-BTK INHIBITORS” (X4 Pharmaceuticals, Inc., priority 2022, published 2025).
Read-outs that look alike come from different tables or passages of the source.

Legend:
CSK = molecular target: T1, CSK (Homo sapiens, UniProt P41240); test: PanQinase kinase panel: CSK; assay type: biochemical; conditions: read-out: INHIBITORY EFFECT @ 1 uM: CSK
T1 construct: purchased Reaction Biology Europe GmbH
Protocol: (§1) Screening procedures were performed in accordance with the company's on-line protocol [accessed on-line Mar.
(§2) For each kinase, the median value of the cpm of three wells was defined as “low control” (n=3). This value reflects unspecific binding of radioactivity to the plate in the absence of a protein kinase but in the presence of the substrate. Additionally, for each kinase the median value of the cpm of three other wells was taken as the “high control,” i.e. full activity in the absence of any inhibitor (n=3). The difference between high and low control of each enzyme was taken as 100% activity.
(§3) As part of the data evaluation the low control of each kinase was subtracted from the high control value as well as from their corresponding “compound values”. The residual activity (in %) for each compound well was calculated by using the following formula: Res. Activity (%)=100×[(signal of compound−low control)/(high control−low control)].

CDK13/CycK = molecular target: T2, CDK13/CycK (Homo sapiens, UniProt Q14004); test: PanQinase kinase panel: CDK13/CycK; assay type: biochemical
T2 construct: purchased Reaction Biology Europe GmbH
Protocol: Screening procedures were performed in accordance with the company's on-line protocol [accessed on-line Mar. 25, 2022 at reaction biology.com/assay-protocol-panqinase]. Inhibitory activity of 50% or greater at concentrations of 1 μM are highlighted for all five compounds tested.
as §2, §3

BMX = molecular target: T3, BMX (Homo sapiens, UniProt P51813); test: PanQinase kinase panel: BMX; assay type: biochemical; conditions: read-out: INHIBITORY EFFECT @ 1 uM: BMX
T3 construct: purchased Reaction Biology Europe GmbH
T3 sequence (P51813 1-675): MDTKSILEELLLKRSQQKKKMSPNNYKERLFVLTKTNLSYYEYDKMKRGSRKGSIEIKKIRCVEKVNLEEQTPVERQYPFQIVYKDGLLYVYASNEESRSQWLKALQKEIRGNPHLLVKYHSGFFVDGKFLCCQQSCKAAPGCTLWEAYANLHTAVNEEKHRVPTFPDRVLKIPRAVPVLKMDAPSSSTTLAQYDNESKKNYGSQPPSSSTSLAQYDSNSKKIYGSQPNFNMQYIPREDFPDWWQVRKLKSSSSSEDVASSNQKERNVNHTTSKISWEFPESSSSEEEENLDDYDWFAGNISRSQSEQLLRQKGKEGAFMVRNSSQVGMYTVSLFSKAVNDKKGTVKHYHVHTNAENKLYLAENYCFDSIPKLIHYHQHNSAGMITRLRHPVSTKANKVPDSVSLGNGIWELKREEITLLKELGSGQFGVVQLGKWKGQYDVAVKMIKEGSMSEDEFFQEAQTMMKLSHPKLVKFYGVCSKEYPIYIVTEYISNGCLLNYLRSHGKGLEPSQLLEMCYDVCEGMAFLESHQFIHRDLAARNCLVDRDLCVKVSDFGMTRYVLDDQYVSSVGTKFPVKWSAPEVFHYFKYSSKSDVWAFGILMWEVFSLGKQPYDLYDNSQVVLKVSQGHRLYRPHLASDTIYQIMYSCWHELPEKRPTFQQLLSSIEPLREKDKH
Protocol: as §1, §2
(§4) As part of the data evaluation the low control of each kinase was subtracted from the high control value as well as from their corresponding “compound values”.

LIMK2 = molecular target: T4, LIMK2 (Homo sapiens, UniProt P53671); test: PanQinase kinase panel: LIMK2; assay type: biochemical
T4 construct: purchased Reaction Biology Europe GmbH
T4 sequence (P53671 whole entry): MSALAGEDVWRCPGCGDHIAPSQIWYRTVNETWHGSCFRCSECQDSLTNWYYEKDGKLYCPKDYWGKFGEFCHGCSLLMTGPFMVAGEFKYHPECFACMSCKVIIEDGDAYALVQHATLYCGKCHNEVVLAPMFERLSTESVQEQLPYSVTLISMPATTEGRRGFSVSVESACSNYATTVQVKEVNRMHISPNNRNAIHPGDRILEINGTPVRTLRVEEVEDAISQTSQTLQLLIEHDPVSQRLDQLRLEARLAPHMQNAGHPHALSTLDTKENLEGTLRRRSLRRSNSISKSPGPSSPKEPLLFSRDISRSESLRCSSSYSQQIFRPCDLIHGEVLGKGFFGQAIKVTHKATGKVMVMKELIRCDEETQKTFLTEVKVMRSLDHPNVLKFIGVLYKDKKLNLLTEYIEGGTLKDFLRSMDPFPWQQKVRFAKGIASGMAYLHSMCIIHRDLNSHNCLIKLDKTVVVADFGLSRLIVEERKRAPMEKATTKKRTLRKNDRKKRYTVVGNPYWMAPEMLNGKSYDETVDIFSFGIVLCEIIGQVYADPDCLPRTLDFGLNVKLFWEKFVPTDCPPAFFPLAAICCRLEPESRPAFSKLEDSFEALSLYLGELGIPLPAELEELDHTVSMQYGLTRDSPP
Protocol: as §1, §2, §3

FER = molecular target: T5, FER (Homo sapiens, UniProt P16591); test: PanQinase kinase panel: FER; assay type: biochemical; conditions: read-out: INHIBITORY EFFECT @ 1 uM: FER
T5 construct: purchased Reaction Biology Europe GmbH
T5 sequence (P16591 whole entry): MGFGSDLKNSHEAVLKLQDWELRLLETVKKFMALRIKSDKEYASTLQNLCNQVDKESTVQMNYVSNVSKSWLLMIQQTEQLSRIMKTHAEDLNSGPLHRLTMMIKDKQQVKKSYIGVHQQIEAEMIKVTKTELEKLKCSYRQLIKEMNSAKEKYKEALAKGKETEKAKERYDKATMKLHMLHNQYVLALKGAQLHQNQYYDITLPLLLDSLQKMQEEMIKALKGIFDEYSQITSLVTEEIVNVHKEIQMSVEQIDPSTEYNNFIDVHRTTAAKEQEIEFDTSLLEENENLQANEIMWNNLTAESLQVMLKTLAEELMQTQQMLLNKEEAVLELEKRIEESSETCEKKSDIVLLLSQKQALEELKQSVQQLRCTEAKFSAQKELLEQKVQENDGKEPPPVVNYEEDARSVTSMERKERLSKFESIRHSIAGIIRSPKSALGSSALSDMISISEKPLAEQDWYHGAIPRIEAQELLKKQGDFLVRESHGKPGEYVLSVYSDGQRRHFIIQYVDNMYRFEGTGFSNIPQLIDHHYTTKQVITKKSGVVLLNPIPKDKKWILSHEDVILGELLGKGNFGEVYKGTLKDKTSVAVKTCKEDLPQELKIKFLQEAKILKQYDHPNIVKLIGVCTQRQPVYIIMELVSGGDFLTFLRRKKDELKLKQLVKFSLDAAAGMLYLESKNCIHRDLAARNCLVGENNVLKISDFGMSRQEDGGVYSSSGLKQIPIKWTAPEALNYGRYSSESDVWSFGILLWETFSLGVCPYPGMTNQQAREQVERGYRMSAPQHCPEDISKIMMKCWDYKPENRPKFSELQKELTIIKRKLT
Protocol: as §1, §2, §3

EGFR = molecular target: T6, EGFR (Homo sapiens, UniProt P00533); test: PanQinase kinase panel: EGFR; assay type: biochemical; conditions: read-out: INHIBITORY EFFECT @ 1 uM: EGFR
T6 construct: purchased Reaction Biology Europe GmbH
T6 sequence (P00533 25-1210): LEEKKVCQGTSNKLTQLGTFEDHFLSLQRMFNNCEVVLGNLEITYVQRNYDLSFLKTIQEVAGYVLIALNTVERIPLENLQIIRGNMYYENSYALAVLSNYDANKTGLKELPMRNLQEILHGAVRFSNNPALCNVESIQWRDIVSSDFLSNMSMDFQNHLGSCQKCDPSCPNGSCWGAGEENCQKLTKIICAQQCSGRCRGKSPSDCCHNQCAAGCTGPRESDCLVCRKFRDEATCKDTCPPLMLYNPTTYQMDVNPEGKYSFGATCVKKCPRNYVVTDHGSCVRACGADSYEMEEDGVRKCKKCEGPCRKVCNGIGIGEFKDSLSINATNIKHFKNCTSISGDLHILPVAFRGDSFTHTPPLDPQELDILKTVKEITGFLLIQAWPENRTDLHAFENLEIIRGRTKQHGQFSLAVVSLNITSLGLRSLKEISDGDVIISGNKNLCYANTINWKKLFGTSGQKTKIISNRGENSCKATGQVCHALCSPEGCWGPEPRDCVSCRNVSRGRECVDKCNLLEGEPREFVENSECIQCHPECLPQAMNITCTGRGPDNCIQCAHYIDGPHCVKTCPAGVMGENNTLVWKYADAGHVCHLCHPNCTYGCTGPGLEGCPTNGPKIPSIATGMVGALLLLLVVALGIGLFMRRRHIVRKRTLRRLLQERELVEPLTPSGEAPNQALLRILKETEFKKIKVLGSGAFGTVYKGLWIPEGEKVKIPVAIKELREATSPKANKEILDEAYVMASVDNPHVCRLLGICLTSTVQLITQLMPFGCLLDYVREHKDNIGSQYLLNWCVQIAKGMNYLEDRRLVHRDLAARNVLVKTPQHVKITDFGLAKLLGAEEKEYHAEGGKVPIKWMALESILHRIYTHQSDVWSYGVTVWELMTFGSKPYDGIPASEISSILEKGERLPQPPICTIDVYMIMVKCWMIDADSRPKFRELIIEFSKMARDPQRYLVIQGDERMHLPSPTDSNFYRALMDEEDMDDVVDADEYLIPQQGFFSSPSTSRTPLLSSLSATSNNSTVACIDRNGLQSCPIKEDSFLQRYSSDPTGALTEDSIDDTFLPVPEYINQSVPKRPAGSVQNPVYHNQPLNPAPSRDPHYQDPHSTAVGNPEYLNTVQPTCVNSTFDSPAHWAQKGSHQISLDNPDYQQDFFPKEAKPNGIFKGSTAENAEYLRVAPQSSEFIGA
Protocol: as §1, §2, §3

LCK = molecular target: T7, LCK (Homo sapiens, UniProt P06239); test: PanQinase kinase panel: LCK; assay type: biochemical; conditions: read-out: INHIBITORY EFFECT @ 1 uM: LCK
T7 construct: purchased Reaction Biology Europe GmbH
T7 sequence (P06239 whole entry): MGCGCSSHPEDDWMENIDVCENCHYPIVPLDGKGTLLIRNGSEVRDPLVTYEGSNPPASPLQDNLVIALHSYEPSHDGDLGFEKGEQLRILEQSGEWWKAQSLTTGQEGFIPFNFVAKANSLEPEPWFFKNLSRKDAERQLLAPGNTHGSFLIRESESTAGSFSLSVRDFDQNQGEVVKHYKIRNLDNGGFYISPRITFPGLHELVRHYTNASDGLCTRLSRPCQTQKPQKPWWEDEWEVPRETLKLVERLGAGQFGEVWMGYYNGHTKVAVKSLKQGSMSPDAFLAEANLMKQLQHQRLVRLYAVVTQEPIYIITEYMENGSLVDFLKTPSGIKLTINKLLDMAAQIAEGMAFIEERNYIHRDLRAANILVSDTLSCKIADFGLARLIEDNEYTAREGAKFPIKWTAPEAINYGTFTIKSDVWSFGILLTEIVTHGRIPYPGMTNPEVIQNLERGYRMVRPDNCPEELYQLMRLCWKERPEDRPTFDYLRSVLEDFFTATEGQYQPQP
Protocol: as §1, §2, §3

ERBB2 = molecular target: T8, ERBB2 (Homo sapiens, UniProt P04626); test: PanQinase kinase panel: ERBB2; assay type: biochemical; conditions: read-out: INHIBITORY EFFECT @ 1 uM: ERBB2
T8 construct: purchased Reaction Biology Europe GmbH
Protocol: as §1, §2, §3

BRK = molecular target: T9, BRK (Homo sapiens, UniProt Q13882); test: PanQinase kinase panel: BRK; assay type: biochemical; conditions: read-out: INHIBITORY EFFECT @ 1 uM: BRK
T9 construct: purchased Reaction Biology Europe GmbH
T9 sequence (Q13882 whole entry): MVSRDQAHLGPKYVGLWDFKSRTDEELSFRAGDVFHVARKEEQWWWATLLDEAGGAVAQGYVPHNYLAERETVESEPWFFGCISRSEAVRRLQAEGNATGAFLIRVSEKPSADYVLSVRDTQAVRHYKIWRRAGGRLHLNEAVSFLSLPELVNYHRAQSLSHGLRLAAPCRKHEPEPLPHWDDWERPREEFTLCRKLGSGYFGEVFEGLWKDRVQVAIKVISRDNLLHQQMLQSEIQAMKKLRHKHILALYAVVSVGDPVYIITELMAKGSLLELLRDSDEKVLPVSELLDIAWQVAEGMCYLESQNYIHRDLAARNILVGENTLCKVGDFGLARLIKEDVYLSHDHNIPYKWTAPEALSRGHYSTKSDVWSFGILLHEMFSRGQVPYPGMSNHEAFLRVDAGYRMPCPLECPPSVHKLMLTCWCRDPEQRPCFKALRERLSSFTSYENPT
Protocol: as §1, §2, §4

SRMS = molecular target: T10, SRMS (Homo sapiens, UniProt Q9H3Y6); test: PanQinase kinase panel: SRMS; assay type: biochemical; conditions: read-out: INHIBITORY EFFECT @ 1 uM: SRMS
T10 construct: purchased Reaction Biology Europe GmbH
T10 sequence (Q9H3Y6 whole entry): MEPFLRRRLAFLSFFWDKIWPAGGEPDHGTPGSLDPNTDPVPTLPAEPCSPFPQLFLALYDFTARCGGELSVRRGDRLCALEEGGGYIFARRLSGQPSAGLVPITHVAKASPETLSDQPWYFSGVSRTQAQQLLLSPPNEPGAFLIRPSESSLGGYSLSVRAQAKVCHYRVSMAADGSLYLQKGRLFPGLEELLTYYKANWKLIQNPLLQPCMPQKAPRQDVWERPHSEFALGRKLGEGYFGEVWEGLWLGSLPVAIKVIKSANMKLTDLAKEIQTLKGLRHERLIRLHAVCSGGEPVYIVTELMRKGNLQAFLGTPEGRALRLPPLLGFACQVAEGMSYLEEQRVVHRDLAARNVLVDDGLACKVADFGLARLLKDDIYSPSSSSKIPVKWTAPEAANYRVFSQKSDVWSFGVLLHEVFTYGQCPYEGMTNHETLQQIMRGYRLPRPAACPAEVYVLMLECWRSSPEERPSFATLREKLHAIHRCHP
Protocol: as §1, §2, §3

MWCL-1 = test: Apoptosis assay (annexin V flow cytometry) in Waldenstrom's Macroglobulinemia cells; assay type: cell-based, human; conditions: for IC50: Homo sapiens, read-out: Apoptosis IC50 (μM) in single-mutant WM Cell Lines (MWCL-1); for promoting apoptosis in WM cells (MWCL-1) compared with ibrutinib or zanubrutinib alone: in words
Protocol: Waldenström's Macroglobulinemia cells (MWCL-1) and the bone marrow stromal cells (BMSCs; HS-27A) were used in this study. The MWCL-1 is a lymphoplasmacytic lymphoma established from the bone marrow aspirate of a patient diagnosed with Waldenström's Macroglobulinemia. It was provided by Dr Stephen M. Ansell (MAYO file number 2021-121; 200 First Street SW, Rochester, Minnesota). This cell line was cultured in RPMI-1640 (Fisher Scientific) containing 10% fetal bovine serum (FBS) (Sigma Aldrich, St Louis, MO), 100U/ml of Penicillin-Streptomycin (Gibco™, ThermoFisher Scientific). The HS-27A bone marrow stromal cells were obtained from ATCC. They were maintained in RPMI 1640 (Fisher Scientific) supplemented with 100U/ml of Penicillin-Streptomycin (Gibco™, ThermoFisher Scientific) and 10% FBS (TakaraBio). Cells were cultured in a 37° C. tissue culture CO2 incubator.
For studies with compounds using a co-culture system of MWCL-1 and BMSCs, BMSCs were cultured in a 96-, 48- or 24-well plates and cultured until the 90% confluence was reached. […] After 1 hour, the MWCL-Icells were added to the BMSC to create a co-culture system. The cells were co-incubated for 72 hours. After incubation time, cell viability, apoptosis, and IgM release were measured.
For studying the effect of compounds on inducing apoptosis of Waldenström Macroglobulinemia cells (MWCL-1). Cells were washed with PBS, resuspended in Annexin V binding buffer (Biolegend), and stained with Alexa Fluor 647 annexin V (Biolegend), Propidium Iodide (BD Pharmigen), and CD45 antibody (Biolegend) for 15 minutes at RT and analyzed by flow cytometry. Data were collected on an CytoFLEX S Flow Cytometer (Beckman Coulter) and analysed with FCS Express Software (De Novo Software). Annexin V positive cells were considered apoptotic.

[1] = read-out: INHIBITORY EFFECT @ 1 uM: CDK13/CycK
[2] = read-out: INHIBITORY EFFECT @ 1 uM: LIMK2

T1 sequence (P41240 whole entry): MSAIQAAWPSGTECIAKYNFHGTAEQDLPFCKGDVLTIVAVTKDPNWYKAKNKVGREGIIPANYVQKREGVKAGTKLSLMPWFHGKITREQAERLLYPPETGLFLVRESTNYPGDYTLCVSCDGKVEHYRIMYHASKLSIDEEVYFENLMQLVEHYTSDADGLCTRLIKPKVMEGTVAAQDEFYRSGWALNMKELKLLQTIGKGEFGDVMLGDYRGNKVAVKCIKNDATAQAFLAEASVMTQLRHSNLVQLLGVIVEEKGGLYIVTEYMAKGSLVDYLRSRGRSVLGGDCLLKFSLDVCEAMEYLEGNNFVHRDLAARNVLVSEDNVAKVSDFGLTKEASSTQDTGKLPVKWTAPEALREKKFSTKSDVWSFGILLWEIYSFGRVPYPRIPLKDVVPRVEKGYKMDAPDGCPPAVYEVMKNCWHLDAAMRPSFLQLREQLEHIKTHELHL

| Compound | inhibition at 1 µM (CSK) | inhibition at 1 µM (CDK13/CycK; [1]) | inhibition at 1 µM (BMX) | inhibition at 1 µM (LIMK2; [2]) | inhibition at 1 µM (FER) | inhibition at 1 µM (EGFR) | inhibition at 1 µM (LCK) | inhibition at 1 µM (ERBB2) | inhibition at 1 µM (BRK) | inhibition at 1 µM (SRMS) | IC50 (MWCL-1; class symbol) | promoting apoptosis in WM cells (MWCL-1) compared with ibrutinib or zanubrutinib alone (MWCL-1) | inhibition at 1 µM (CDK13/CycK; at 1 μM, read-out: inhibition of CDK13/CycK) | inhibition at 1 µM (LIMK2; at 1 μM, read-out: inhibition of LIMK2) | IC50 (MWCL-1; numeric) |
| --- | --- | --- | --- | --- | --- | --- | --- | --- | --- | --- | --- | --- | --- | --- | --- |
| COc1ccc(F)cc1C(=O)NCc1ccc(-c2nn([C@@H](C)C(F)(F)F)c(N)c2C(N)=O)cc1 [LOXO-305, pirtobrutinib] | 70 to 89% | < 50% | 50 to 69% | < 50% | < 50% | < 50% | < 50% | 50 to 69% | 70 to 89% | < 50% | – | – | – | – | – |
| Cc1cccnc1[C@H]1CCC[C@@H](c2ncccc2C)N1CCN1CCN(C(=O)c2ccc(-c3cc4c(-c5cccc(NC(=O)c6ccccc6)c5C)ncnc4[nH]3)cc2)CC1 [Compound I-10, N-(3-(6-(4-(4-(2-((2R,6S)-2,6-bis(3-methylpyridin-2-yl)piperidin-1-yl)ethyl)piperazine-1-carbonyl)phenyl)-7H-pyrrolo[2,3-d]pyrimidin-4-yl)-2-methylphenyl)benzamide] | < 50% | 50 to 69% | 70 to 89% | 50 to 69% | < 50% | < 50% | < 50% | < 50% | < 50% | < 50% | 0.1 to 2 µM | more effective in promoting apoptosis | 50 to 89% | 50 to 89% | – |
| Cc1cc(-c2ccnc(Nc3cnn(CCN4[C@@H](c5ncccc5C)CCC[C@H]4c4ncccc4C)c3)n2)ccc1CNC(=O)N1CC(OC(C)C)C1 [Compound I-11] | – | – | – | – | – | – | – | – | – | – | 0.1 to 2 µM | more effective in promoting apoptosis | – | – | – |
| C=CC(=O)N1CCC([C@@H]2CCNc3c(C(N)=O)c(-c4ccc(Oc5ccccc5)cc4)nn32)CC1 [Zanubrutinib, (7S)-2-(4-phenoxyphenyl)-7-(1-prop-2-enoylpiperidin-4-yl)-4,5,6,7-tetrahydropyrazolo[1,5-a]pyrimidine-3-carboxamide] | – | < 50% | – | < 50% | < 50% | < 50% | < 50% | < 50% | 90 to 100% | < 50% | – | – | – | – | 17.7 µM |
| O=C(c1ccc(Oc2ccccc2)cc1Cl)c1c[nH]c2ncnc(N[C@@H]3CC[C@@H](CO)OC3)c12 [ARQ-531, (2-chloro-4-phenoxyphenyl) (4-(((3R,6S)-6-(hydroxymethyl)tetrahydro-2H-pyran-3-yl)amino)-7H-pyrrolo[2,3-d]pyrimidin-5-yl) methanone] | 90 to 100% | – | 90 to 100% | – | 70 to 89% | 70 to 89% | 90 to 100% | 70 to 89% | – | 90 to 100% | – | – | – | – | – |
